Laboratory results reported in the NIST ThermoML archive (doi:10.1021/je2009736).

What was measured:
[1] = xn = mol fraction of the nth substance listed; conditions: 101 kPa, Liquid, Vibrating tube method
[2] = 298.15 K; 101.33 kPa; Liquid; Vibrating tube method

C[SiH]1O[SiH](C)O[SiH](C)O[SiH](C)O1 (stereo unspecified) [2,4,6,8-tetramethyl-1,3,5,7,2,4,6,8-tetroxatetrasilocane] + Cc1cccc(C)c1
mass density [kg/m3], [1]
Conditions	288.15 K	298.15 K	308.15 K
x1 = 0.05	882	873.13	864.29
x1 = 0.1001	894.34	885.16	876.06
x1 = 0.15	905.42	896	886.6
x1 = 0.1999	915.45	905.8	896.12
x1 = 0.2498	924.55	914.65	904.73
x1 = 0.2999	932.94	922.8	912.66
x1 = 0.35	940.55	930.19	919.83
x1 = 0.3995	947.41	936.84	926.34
x1 = 0.4504	953.92	943.11	932.41
x1 = 0.5	959.71	948.69	937.79
x1 = 0.55	965.11	953.9	942.81
x1 = 0.5996	970.04	958.65	947.34
x1 = 0.65	974.69	963.1	951.62
x1 = 0.6995	978.87	967.14	955.47
x1 = 0.7495	982.81	970.92	959.07
x1 = 0.7996	986.48	974.42	962.42
x1 = 0.8498	989.84	977.65	965.47
x1 = 0.8994	992.98	980.64	968.32

C[SiH]1O[SiH](C)O[SiH](C)O[SiH](C)O1 (stereo unspecified) [2,4,6,8-tetramethyl-1,3,5,7,2,4,6,8-tetroxatetrasilocane] + Cc1ccc(C)cc1
mass density [kg/m3], [1]
Conditions	288.15 K	298.15 K	308.15 K
x1 = 0.0499	879.33	870.42	861.48
x1 = 0.0999	892.03	882.82	873.61
x1 = 0.1501	903.51	893.96	884.48
x1 = 0.1999	913.85	904.11	894.33
x1 = 0.25	923.25	913.34	903.35
x1 = 0.2999	931.83	921.7	911.4
x1 = 0.3501	939.62	929.23	918.8
x1 = 0.4	946.73	936.18	925.53
x1 = 0.4502	953.29	942.54	931.67
x1 = 0.4997	959.21	948.26	937.19
x1 = 0.5493	964.63	953.54	942.24
x1 = 0.6001	969.79	958.45	947.03
x1 = 0.6501	974.4	962.93	951.37
x1 = 0.7002	978.67	967.02	955.31
x1 = 0.7472	982.39	970.62	958.76
x1 = 0.7998	986.27	974.32	962.3
x1 = 0.8492	989.69	977.56	965.38
x1 = 0.9002	992.92	980.61	968.28

Cc1cccc(C)c1 [1,3-dimethylbenzene]
Conditions	mass density [kg/m3]
[2]	859.86

c1ccccc1 [benzene]
Conditions	mass density [kg/m3]
[2]	873.57

C[SiH]1O[SiH](C)O[SiH](C)O[SiH](C)O1 (stereo unspecified) [2,4,6,8-tetramethyl-1,3,5,7,2,4,6,8-tetroxatetrasilocane] + Cc1ccccc1
mass density [kg/m3], [1]
Conditions	288.15 K	298.15 K	308.15 K
x1 = 0.0499	886.6	877.08	867.53
x1 = 0.0999	899.94	890.19	880.4
x1 = 0.15	911.67	901.66	891.68
x1 = 0.2	921.98	911.75	901.57
x1 = 0.25	931.15	920.71	910.33
x1 = 0.3	939.31	928.7	918.15
x1 = 0.3502	946.71	935.91	925.11
x1 = 0.4	953.26	942.25	931.31
x1 = 0.4501	959.23	948.05	936.94
x1 = 0.5004	964.63	953.32	942.01
x1 = 0.5504	969.56	958.11	946.61
x1 = 0.5998	973.98	962.38	950.74
x1 = 0.6497	978.02	966.26	954.47
x1 = 0.6994	981.74	969.83	957.9
x1 = 0.7497	985.15	973.12	961.05
x1 = 0.8	988.34	976.19	963.99
x1 = 0.8494	991.18	978.9	966.61
x1 = 0.8995	993.85	981.45	969.04

C[SiH]1O[SiH](C)O[SiH](C)O[SiH](C)O1 (stereo unspecified) [2,4,6,8-tetramethyl-1,3,5,7,2,4,6,8-tetroxatetrasilocane]
Conditions	mass density [kg/m3]
[2]	992.39

C[SiH]1O[SiH](C)O[SiH](C)O[SiH](C)O1 (stereo unspecified) [2,4,6,8-tetramethyl-1,3,5,7,2,4,6,8-tetroxatetrasilocane] + c1ccccc1
mass density [kg/m3], [1]
Conditions	288.15 K	298.15 K	308.15 K
x1 = 0.0497	898.88	888.24	877.55
x1 = 0.0999	911.74	900.99	890.29
x1 = 0.1499	922.78	911.91	901.26
x1 = 0.1997	932.3	921.32	910.69
x1 = 0.2501	940.72	929.65	918.93
x1 = 0.3	948.04	936.87	926.1
x1 = 0.35	954.56	943.15	932.28
x1 = 0.3999	960.28	948.81	937.73
x1 = 0.4498	965.46	953.89	942.65
x1 = 0.4999	970.05	958.4	947.02
x1 = 0.5498	974.22	962.44	950.92
x1 = 0.5999	978.03	966.16	954.53
x1 = 0.6486	981.36	969.41	957.65
x1 = 0.7001	984.61	972.54	960.64
x1 = 0.7495	987.43	975.28	963.27
x1 = 0.8001	990.04	977.8	965.71
x1 = 0.8499	992.42	980.12	967.91
x1 = 0.8986	994.56	982.19	969.9

Cc1ccc(C)cc1 [1,4-dimethylbenzene]
Conditions	mass density [kg/m3]
[2]	856.67

Cc1ccccc1C [1,2-dimethylbenzene]
Conditions	mass density [kg/m3]
[2]	875.72

C[SiH]1O[SiH](C)O[SiH](C)O[SiH](C)O1 (stereo unspecified) [2,4,6,8-tetramethyl-1,3,5,7,2,4,6,8-tetroxatetrasilocane] + Cc1ccccc1C
mass density [kg/m3], [1]
Conditions	288.15 K	298.15 K	308.15 K
x1 = 0.0499	896.79	888.17	879.45
x1 = 0.1	908.22	899.3	890.28
x1 = 0.15	918.4	909.22	899.95
x1 = 0.2	927.56	918.11	908.59
x1 = 0.25	935.82	926.11	916.33
x1 = 0.2998	943.2	933.25	923.21
x1 = 0.3501	949.98	939.8	929.53
x1 = 0.3998	956.06	945.66	935.16
x1 = 0.4496	961.56	950.95	940.25
x1 = 0.4998	966.65	955.84	944.92
x1 = 0.5497	971.24	960.22	949.1
x1 = 0.5997	975.45	964.25	952.96
x1 = 0.6496	979.25	967.88	956.36
x1 = 0.7001	982.82	971.27	959.58
x1 = 0.7502	986.05	974.32	962.44
x1 = 0.7998	988.96	977.09	965.04
x1 = 0.848	991.61	979.54	967.33
x1 = 0.9002	994.23	982.02	969.65

Cc1ccccc1 [toluene]
Conditions	mass density [kg/m3]
[2]	862.23
